Data: ChEMBL document CHEMBL1255235, “Molecular basis for resistance of acanthamoeba tubulins to all major classes of antitubulin compounds” (Antimicrob Agents Chemother, 2008)
Each block holds one compound with its values, some of them ahead of it.

Key:
[1] = Inhibition of tubulin in Acanthamoeba polyphaga by alamar blue assay
[2] = Inhibition of tubulin in Acanthamoeba castellanii by alamar blue assay
[3] = Inhibition of tubulin in rabbit corneal cells by alamar blue assay; type: cell-based; settings: Oryctolagus cuniculus, Cornea
Acanthamoeba polyphaga = assay: Antimicrobial activity against Acanthamoeba polyphaga; type: functional, organism-based
Acanthamoeba castellanii = assay: Antimicrobial activity against Acanthamoeba castellanii; type: functional, organism-based
Toxoplasma gondii = assay: Antimicrobial activity against Toxoplasma gondii; type: functional, organism-based
Leishmania sp. = assay: Antimicrobial activity against Leishmania sp.; type: functional, organism-based

Compound: CCCSc1ccc2[nH]c(NC(=O)OC)nc2c1 [ALBENDAZOLE]
IC50 [1]: > 47 µM | IC50 [2]: > 47000 nM | IC50 [3]: 700 nM

IC50 (Acanthamoeba polyphaga): 3.12 µM | IC50 (Acanthamoeba castellanii): 1560 nM
Compound: N=C(NCCCCCCNC(=N)NC(=N)Nc1ccc(Cl)cc1)NC(=N)Nc1ccc(Cl)cc1 [CHLORHEXIDINE]

Compound: COc1cc2c(c(OC)c1OC)-c1ccc(OC)c(=O)cc1[C@@H](NC(C)=O)CC2 [COLCHICINE]
IC50 [1]: 2500 µM | IC50 [2]: 2500 nM | IC50 [3]: 2400 nM

Compound: CCCN(CCC)c1c([N+](=O)[O-])cc(S(N)(=O)=O)cc1[N+](=O)[O-] [ORYZALIN]
IC50 [1]: > 100 µM | IC50 [2]: > 100000 nM | IC50 [3]: > 500000 nM

IC50 (Leishmania sp.): 35 nM
Compound: CC(=O)O[C@H]1C(=O)[C@@]2(C)[C@H]([C@H](OC(=O)c3ccccc3)[C@]3(O)C[C@H](OC(=O)[C@H](O)[C@@H](NC(=O)c4ccccc4)c4ccccc4)C(C)=C1C3(C)C)[C@]1(OC(C)=O)CO[C@@H]1C[C@@H]2O [PACLITAXEL]
IC50 (Toxoplasma gondii): 1000 nM | IC50 [1]: > 10 µM | IC50 [2]: > 10000 nM | IC50 [3]: 40 nM

Compound: CC[C@]1(O)C[C@@H]2CN(CCc3c([nH]c4ccccc34)[C@@](C(=O)OC)(c3cc4c(cc3OC)N(C)[C@H]3[C@@](O)(C(=O)OC)[C@H](OC(C)=O)[C@]5(CC)C=CCN6CC[C@]43[C@@H]65)C2)C1 [VINBLASTINE]
IC50 [1]: 0.68 µM | IC50 [2]: 680 nM | IC50 [3]: 17 nM
